# According to ChEMBL document CHEMBL4715758, “Hit-to-Lead Optimization of a Novel Class of Potent, Broad-Spectrum Trypanosomacides” (J Med Chem, 2016):
# Key:
# [1] = Selectivity index, ratio of IC50 for cytotoxicity against human HEK293 cells assessed as reduction in cell viability to IC50 for antitrypanosomal activity against Trypanosoma brucei brucei Lister 427 blood stream form; type: toxicity, cell-based; conditions: read-out: Ratio IC50
# [2] = test system: Trypanosoma brucei brucei; assay: Antitrypanosomal activity against Trypanosoma brucei brucei Lister 427 strain blood stream forms incubated for 48 hrs by resazurin dye based fluorescence assay; type: functional, organism-based; conditions: Lister 427, 48 h
# [3] = Selectivity index, ratio of IC50 for cytotoxicity against rat H9c2 cells assessed as reduction in cell viability to IC50 for antitrypanosomal against Trypanosoma cruzi Tulahuen trypomastigotes infected in rat H9c2 cells; type: toxicity, cell-based; conditions: read-out: Ratio IC50
# Trypanosoma cruzi = assay: Antitrypanosomal activity against Trypanosoma cruzi Tulahuen strain trypomastigotes infected in rat H9c2 cells incubated for 72 hrs by DRAQ5 DNA dye based imaging analysis; type: functional, organism-based; conditions: H9c2, 72 h
Compound,selectivity ratio [1],IC50 [2] [nM],selectivity ratio [3],IC50 (Trypanosoma cruzi) [nM]
N#Cc1ccc(-c2nc(CCNC(=O)N3CCCCC3)cs2)cc1,125,330,,
O=C(NCCc1csc(-c2ccncc2)n1)C1CCCC1,9,9100,> 1.5,32000
O=C(NCCc1csc(-c2ccc(Cl)cc2)n1)N1CCCCC1,55,1500,,
Cc1ccccc1C(=O)NCCc1csc(-c2ccccc2)n1,2.5,3300,> 15,3200
O=C(NCCc1csc(-c2cccnc2)n1)c1ccccc1,,,,40000
O=C(NCCc1csc(-c2ccccc2)n1)c1ccc[nH]1,,,,6300
O=C(NCCc1csc(-c2ccccc2)n1)OCC1CC1,86,970,> 15,3200
O=C(NCCc1csc(-c2ccccc2)n1)c1ccoc1,240,350,,
Cc1ccc(-c2nc(CCNC(=O)N3CCCCC3)cs2)cc1,22,3700,,
Cc1ccc(C(=O)NCCc2csc(-c3ccccc3)n2)o1,22,1900,,
COc1ccccc1C(=O)NCCc1csc(-c2ccccc2)n1,2,10600,> 5,10000
O=C(NCCc1csc(-c2ccccc2)n1)N1CCOCC1,,,,3200
COc1cccc(C(=O)NCCc2csc(-c3ccccc3)n2)c1,26,1900,> 15,3200
COc1ccccc1-c1nc(CCNC(=O)N2CCCCC2)cs1,168,500,,
O=C(NCCc1csc(-c2ccccc2)n1)OC1CCCC1,280,300,> 125,400
O=C(NCCc1csc(-c2ccccc2)n1)c1ccco1,,,,2000
O=C(NCCc1csc(-c2ccccc2)n1)c1ccon1,113,740,> 19,2500
O=C(NCCc1csc(-c2cccc(Cl)c2)n1)N1CCCCC1,511,160,,

Compound,selectivity ratio [1],IC50 [2] [nM],selectivity ratio [3],IC50 (Trypanosoma cruzi) [nM]
O=C(NCCc1csc(-c2ccccc2)n1)c1ccncc1,,,,40000
O=C(NCCc1csc(-c2ccccc2)n1)c1cc(Br)co1,12,2500,> 10,5000
O=C(NCCc1csc(-c2ccccc2)n1)C1CCCCC1,,,,320
O=C(NCCc1csc(-c2ccccc2)n1)c1cscn1,68,1200,,
O=C(NCCc1csc(-c2ccccc2)n1)N1CCCCCC1,,,,120
N#Cc1cccc(C(=O)NCCc2csc(-c3ccccc3)n2)c1,,,,790
O=C(NCCc1csc(-c2ccccc2)n1)C1CCOCC1,17,5000,,
O=C(NCCc1csc(-c2ccccn2)n1)C1CCCC1,21,4000,,
O=C(NCCc1csc(-c2ccccc2)n1)c1cccs1,,,,400
O=C(NCCc1csc(-c2ccccc2)n1)C1CC2C=CC1O2 (racemic),15,5500,,
O=C(NCCc1csc(-c2ccccc2)n1)c1cccnc1,,,,2500
Cc1ccccc1-c1nc(CCNC(=O)N2CCCCC2)cs1,439,190,,
O=C(NCCc1csc(-c2ccccn2)n1)c1ccccc1,,,,6300
O=C(NCCc1csc(-c2ccccc2)n1)n1cccc1,38,1100,,
N#Cc1cccc(-c2nc(CCNC(=O)N3CCCCC3)cs2)c1,149,280,,
COc1cccc(-c2nc(CCNC(=O)N3CCCCC3)cs2)c1,62,670,,
O=C(NCCc1csc(-c2ccncc2)n1)c1ccccc1,,,,32000
C#Cc1cccc(C(=O)NCCc2csc(-c3ccccc3)n2)c1,27,760,,
